Among the data in patent US20230092163A1, “COMPOUNDS AND COMPOSITIONS FOR TREATING CONDITIONS ASSOCIATED WITH STING ACTIVITY” (IFM Due, Inc., priority 2019, published 2023) are EC50 values, retold here.

The target in one assay is STING (Homo sapiens, UniProt Q86WV6, G230A/H232R/R293Q/R71H). The assay can be described thus: STING reporter assay: THP1-Dual KO-IFNAR2 cells stimulated with 2′3′cGAMP, luciferase reporter activity. The conditions noted are these: 15 μM 2′3′cGAMP, 24h, class symbols. Format: cell-based. The method, then: STING pathway activation by the compounds described herein were measured using THP1-Dual™ cells (KO-IFNAR2).
Chain of STING (Q86WV6 whole entry R71H/G230A/H232R/R293Q): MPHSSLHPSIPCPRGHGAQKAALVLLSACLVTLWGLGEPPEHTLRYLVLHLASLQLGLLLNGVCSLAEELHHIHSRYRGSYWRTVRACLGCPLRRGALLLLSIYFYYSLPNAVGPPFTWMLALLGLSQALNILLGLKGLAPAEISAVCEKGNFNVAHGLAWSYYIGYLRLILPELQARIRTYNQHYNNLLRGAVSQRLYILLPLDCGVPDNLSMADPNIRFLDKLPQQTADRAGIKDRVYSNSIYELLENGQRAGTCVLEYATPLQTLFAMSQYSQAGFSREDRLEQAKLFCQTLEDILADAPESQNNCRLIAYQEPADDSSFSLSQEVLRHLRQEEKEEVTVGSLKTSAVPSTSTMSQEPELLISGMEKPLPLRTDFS
THP1-Dual™ KO-IFNAR2 Cells (obtained from invivogen) were maintained in RPMI, 10% FCS, 5 ml P/S, 2 mM L-glut, 10 mM Hepes, and 1 mM sodium pyruvate. Compounds were spotted in empty 384 well tissue culture plates (Greiner 781182) by Echo for a final concentration of 0.0017-100 μM. Cells were plated into the TC plates at 40 μL per well, 2×10E6 cells/mL. For activation with STING ligand, 2′3′cGAMP (MW 718.38, obtained from Invivogen), was prepared in Optimem media.
The following solutions were prepared for each 1×384 plate: • Solution A: 2 mL Optimem with one of the following stimuli: • 60 uL of 10 mM 2′3′cGAMP ->150 μM stock • Solution B: 2 mL Optimem with 60 μL Lipofectamine 2000->Incubate 5 min at RT
2 mL of solution A and 2 ml Solution B was mixed and incubated for 20 min at room temperature (RT). 20 uL of transfection solution (A+B) was added on top of the plated cells, with a final 2′3′cGAMP concentration of 15 μM. The plates were then centrifuged immediately at 340 g for 1 minute, after which they were incubated at 37° C., 5% CO2, >98% humidity for 24h. Luciferase reporter activity was then measured. EC50 values were calculated by using standard methods known in the art.
Luciferase reporter assay: 10 μL of supernatant from the assay was transferred to white 384-plate with flat bottom and squared wells. One pouch of QUANTI-Luc™ Plus was dissolved in 25 mL of water. 100 μL of QLC Stabilizer per 25 mL of QUANTI-Luc™ Plus solution was added. 50 μL of QUANTI-Luc™ Plus/QLC solution per well is then added. Luminescence is measured on a Platereader (e.g., Spectramax I3X (Molecular Devices GF3637001)).
Luciferase reporter activity was then measured. EC50 values were calculated by using standard methods known in the art.
`C[C@H](NC(=O)Nc1cc(Cl)c2cc[nH]c2c1)c1cc(Cl)cc(C(F)(F)F)c1` (single isomer, unassigned) [Compound 520] came in with an EC50 of 0.2 to 1 µM.

The compound `O=C(Nc1ccc(C(F)(F)F)cc1)Nc1ccc2cc[nH]c2c1` [Compound 101] returned an EC50 of 0.04 to 0.2 µM. Same read-out and setting: the same measure for `O=C(Nc1ccc(C(F)(F)F)cc1)Nc1ccc2[nH]ccc2c1` [Compound 102]: 1 to 5 µM; for `O=C(Nc1ccc(C(F)(F)F)cc1)Nc1cc2[nH]ccc2cn1` [Compound 110]: 5 to 100 µM. Same read-out and setting: as for `O=C(Nc1ccc(C(F)(F)F)cc1)Nc1cnc2cc[nH]c2c1` [Compound 111], the figure is 0.2 to 1 µM; as for `C#Cc1ccc(NC(=O)Nc2ccc3[nH]ccc3c2)cc1` [Compound 151], 5 to 100 µM.

As to `C#Cc1ccc(NC(=O)Nc2ccc3cc[nH]c3c2)cc1` [Compound 152], the EC50 lay within 0.2 to 1 µM. The same measure, in the same setting: as for `O=C(Nc1cc(F)cc(C(F)(F)F)c1)Nc1cc(Cl)c2cc[nH]c2c1` [Compound 153], the figure is 0.2 to 1 µM; as for `O=C(Nc1ccc(C(F)(F)F)cc1)Nc1cc(Br)c2cc[nH]c2c1` [Compound 155], 0.04 to 0.2 µM; as for `O=C(Nc1ccc(Oc2c(F)cccc2F)cc1)Nc1ccc2cc[nH]c2c1` [Compound 160], 1 to 5 µM. Still for that read-out and setting: the same measure for `O=C(NCCC1CC1)Nc1ccc2cc[nH]c2c1` [Compound 162]: 5 to 100 µM. The same measure, in the same setting: as for `O=C(Nc1ccc(F)c(F)c1)Nc1ccc2cc[nH]c2c1` [Compound 164], the figure is 0.2 to 1 µM; as for `COC(=O)c1cc(NC(=O)Nc2ccc(C(F)(F)F)cc2)cc2[nH]ccc12` [Compound 165], 0.2 to 1 µM. `O=C(Nc1ccc(C(F)(F)F)cc1)Nc1cc(-c2cn[nH]c2)c2cc[nH]c2c1` [Compound 167] registered an EC50 of 1 to 5 µM. Same read-out and setting: as for `O=C(Nc1cccc(S(=O)(=O)N2CCCC2)c1)Nc1ccc2cc[nH]c2c1` [Compound 168], the figure is 5 to 100 µM. On the same count and under the same terms, the same measure for `O=C(Nc1ccc(C(F)(F)F)cc1)Nc1cc(-c2ccccc2)c2cc[nH]c2c1` [Compound 169]: 1 to 5 µM. The same measure, in the same setting: as for `O=C(Nc1ccc2cc[nH]c2c1)Nc1ccc2cc[nH]c2c1` [Compound 170], the figure is 1 to 5 µM; as for `CC(Cc1cccc(C(F)(F)F)c1)NC(=O)Nc1ccc2cc[nH]c2c1` (centres unmarked) [Compound 172], 1 to 5 µM; as for `O=C(NCCc1c[nH]c2cc(OC(F)(F)F)ccc12)Nc1ccc2cc[nH]c2c1` [Compound 173], 0.2 to 1 µM. In turn, `O=C(NCCN1CCC(Cc2ccccc2)CC1)Nc1ccc2cc[nH]c2c1` [Compound 174] registered an EC50 of 5 to 100 µM. The same measure, in the same setting: as for `O=C(NCCOc1cccc(Br)c1)Nc1ccc2cc[nH]c2c1` [Compound 175], the figure is 1 to 5 µM. Turning to `O=C(NCc1ccc(OCC(F)(F)F)nc1)Nc1ccc2cc[nH]c2c1` [Compound 176], the EC50 fell in the range of 1 to 5 µM. The compound `O=C(NCCCc1cncc(C(F)(F)F)c1)Nc1ccc2cc[nH]c2c1` [Compound 177] had an EC50 of 1 to 5 µM. The compound `O=C(Nc1ccc2cc[nH]c2c1)NC1CCc2ccc(C(F)(F)F)cc21` (centres unmarked) [Compound 181] had an EC50 of 1 to 5 µM.

Turning to `CC(C)c1ccc(-c2nnc(NC(=O)Nc3ccc4cc[nH]c4c3)s2)cc1` [Compound 182], the EC50 lay within 0.2 to 1 µM. Still for that read-out and setting: the same measure for `O=C(NCCc1ccc(OC(F)(F)F)cc1)Nc1ccc2cc[nH]c2c1` [Compound 183]: 0.2 to 1 µM; for `Cc1ccc(CCNC(=O)Nc2ccc3cc[nH]c3c2)cc1C` [Compound 186]: 1 to 5 µM; for `CCCCCNC(=O)Nc1ccc2cc[nH]c2c1` [Compound 188]: 1 to 5 µM. Compound `N#Cc1ccc(OC2CCC(NC(=O)Nc3ccc4cc[nH]c4c3)CC2)cc1` (centres unmarked) [Compound 195] came in with an EC50 of 1 to 5 µM. The same measure, in the same setting: as for `O=C(Nc1ccc(C(F)(F)F)cc1)Nc1ccc2c(Br)c[nH]c2c1` [Compound 196], the figure is 0.2 to 1 µM; as for `CN(C)S(=O)(=O)c1cccc(NC(=O)Nc2ccc3cc[nH]c3c2)c1` [Compound 198], 5 to 100 µM; as for `CCC(NC(=O)Nc1ccc2cc[nH]c2c1)c1cccc(C(F)(F)F)c1` (centres unmarked) [Compound 199], 1 to 5 µM.

`O=C(Nc1ccc(S(=O)(=O)C(F)(F)F)cc1)Nc1ccc2cc[nH]c2c1` [Compound 200]: the EC50 was 0.2 to 1 µM. Still for that read-out and setting: the same measure for `O=C(NCCc1ncc(C(F)(F)F)cc1Cl)Nc1ccc2cc[nH]c2c1` [Compound 201]: 1 to 5 µM; for `CN(C)S(=O)(=O)c1ccc(NC(=O)Nc2ccc3cc[nH]c3c2)cc1` [Compound 202]: 5 to 100 µM; for `O=C(Nc1cccc(S(=O)(=O)C(F)(F)F)c1)Nc1ccc2cc[nH]c2c1` [Compound 203]: 1 to 5 µM. On the same count and under the same terms, as for `O=C(NCCSCc1c(Cl)cccc1Cl)Nc1ccc2cc[nH]c2c1` [Compound 204], the figure is 1 to 5 µM.

In turn, `O=C(NCc1cc(Cl)cc(C(F)(F)F)c1)Nc1ccc2cc[nH]c2c1` [Compound 205] gave an EC50 of 0.2 to 1 µM. The same measure, in the same setting: as for `O=C(NCc1ccc(C(F)(F)F)c(Cl)c1)Nc1ccc2cc[nH]c2c1` [Compound 206], the figure is 1 to 5 µM; as for `O=C(NCc1ccc(Cl)c(C(F)(F)F)c1)Nc1ccc2cc[nH]c2c1` [Compound 207], 1 to 5 µM; as for `O=C(NCCc1ccc(Br)cc1)Nc1ccc2cc[nH]c2c1` [Compound 208], 0.2 to 1 µM. Same read-out and setting: as for `O=C(NCCc1c(F)cccc1Cl)Nc1ccc2cc[nH]c2c1` [Compound 209], the figure is 1 to 5 µM; as for `O=C(NCCc1cccc(Cl)c1)Nc1ccc2cc[nH]c2c1` [Compound 210], 1 to 5 µM. Still for that read-out and setting: the same measure for `O=C(NCCc1ccccc1Cl)Nc1ccc2cc[nH]c2c1` [Compound 211]: 1 to 5 µM; for `Cc1ccccc1CCNC(=O)Nc1ccc2cc[nH]c2c1` [Compound 212]: 1 to 5 µM.

Take `O=C(Nc1ccc2cc[nH]c2c1)N[C@@H]1C[C@H]1c1ccccc1` [Compound 214]: the EC50 was in the range of 1 to 5 µM.

`CC(C)CCNC(=O)Nc1ccc2cc[nH]c2c1` [Compound 215] yielded an EC50 of 1 to 5 µM. Still for that read-out and setting: as for `CC(C)(C)c1cc(NC(=O)Nc2ccc3cc[nH]c3c2)on1` [Compound 217], the figure is 5 to 100 µM.

Staying with this assay, now noted: 15 μM 2′3′cGAMP, 24h, numeric bounds.
Compound `CCCCc1ccc(Nc2c(Nc3ccc4cc[nH]c4c3)c(=O)c2=O)cc1` [Compound 113] displayed an EC50 of more than 14.8 µM.

`O=C(NCC1(c2cccc(Cl)c2)CCOCC1)Nc1ccc2cc[nH]c2c1` [Compound 154] registered a 50% effective concentration (EC50) of more than 30 µM. Same read-out and setting: the same measure for `Cc1cc(NC(=O)Nc2ccc(C(F)(F)F)cc2)cc2c1ccn2-c1cn[nH]c1` [Compound 156]: more than 30 µM; for `O=C(Nc1ccc(C(F)(F)F)cc1)Nc1cc(CO)c2cc[nH]c2c1` [Compound 157]: more than 30 µM; for `N#Cc1ccc(CNC(=O)Nc2ccc3cc[nH]c3c2)c(C(F)(F)F)c1` [Compound 159]: more than 30 µM.

Regarding `O=C(Nc1ccc2cc[nH]c2c1)NC1Cc2ccccc2C1` [Compound 161], the EC50 is more than 30 µM. On the same count and under the same terms, as for `O=C(Nc1ccc(C(F)(F)F)cc1)Nc1cc(C(=O)O)c2cc[nH]c2c1` [Compound 166], the figure is more than 30 µM; as for `CC1(CNC(=O)Nc2ccc3cc[nH]c3c2)CCC(F)(F)CC1` [Compound 171], more than 30 µM; as for `CC(C)(C)OC(=O)N1CC(CCNC(=O)Nc2ccc3cc[nH]c3c2)C1` [Compound 178], more than 30 µM. Still for that read-out and setting: as for `CCS(=O)(=O)c1ccc(CNC(=O)Nc2ccc3cc[nH]c3c2)cn1` [Compound 179], the figure is more than 30 µM; as for `CCn1cc(CNC(=O)Nc2ccc3cc[nH]c3c2)cn1` [Compound 180], more than 30 µM; as for `O=C(NCCc1ccccc1Br)Nc1ccc2cc[nH]c2c1` [Compound 184], more than 30 µM.

`Cc1cc(CNC(=O)Nc2ccc3cc[nH]c3c2)nn1C` [Compound 185] gave an EC50 of more than 30 µM. `O=C(NCCc1ccccc1)Nc1ccc2cc[nH]c2c1` [Compound 187]: the EC50 was more than 30 µM.

`Cn1cc(NC(=O)Nc2ccc3cc[nH]c3c2)cn1` [Compound 189] had a concentration for a half-maximal effect (EC50) of more than 30 µM. On the same count and under the same terms, the same measure for `O=C(Nc1ccc2cc[nH]c2c1)Nc1ccon1` [Compound 190]: more than 30 µM. Still for that read-out and setting: the same measure for `O=C(Nc1ccc2cc[nH]c2c1)Nc1ccno1` [Compound 191]: more than 30 µM; for `Cc1ccc(CNC(=O)Nc2ccc3cc[nH]c3c2)cc1` [Compound 192]: more than 30 µM. Turning to `N#Cc1cc(F)cc(NC(=O)Nc2ccc3cc[nH]c3c2)c1` [Compound 193], the concentration for a half-maximal effect (EC50) was more than 30 µM. Same read-out and setting: as for `O=C(Nc1ccc2cc[nH]c2c1)Nc1ccccc1Cl` [Compound 194], the figure is more than 30 µM. The compound `Cn1cc(-c2cc(NC(=O)Nc3ccc(C(F)(F)F)cc3)cc3[nH]ccc23)cn1` [Compound 197] displayed a half-maximal effective concentration (EC50) of more than 30 µM. The same measure, in the same setting: the same measure for `CC(CNC(=O)Nc1ccc2cc[nH]c2c1)c1ccccc1` (centres unmarked) [Compound 213]: more than 30 µM; for `O=C(NCC1CCC1)Nc1ccc2cc[nH]c2c1` [Compound 216]: more than 30 µM.
